Data as given in the NIST ThermoML archive (doi:10.1021/je3003404).
Numbers after ± are expanded uncertainties.

Assay: mn = molality of the nth substance listed, in mol/kg
Details: 101 kPa, Liquid; for viscosity: Capillary tube (Ostwald / Ubbelohde) method; for electrical conductivity: Dip type conductivity cell; for mass density: Pycnometric method; for speed of sound: Sing-around technique in a fixed-path interferometer

CCCCCCCCCCCCCCCC[N+](C)(C)CC.[Br-] [ethylhexadecyldimethylammonium bromide] + O
Details | electrical conductivity [S/m] | mass density [kg/m3] | speed of sound [m/s] | viscosity [mPa·s]
298.15 K, m1 = 0.0002 | 0.0027 ± 0.00011 | 996.43 ± 0.43 | 1498.5 ± 0.94 | 0.8803 ± 0.036
298.15 K, m1 = 0.0005 | 0.00707 ± 0.00028 | 996.47 ± 0.43 | 1499.3 ± 0.94 | 0.8841 ± 0.036
298.15 K, m1 = 0.0008 | 0.0105 ± 0.00042 | 996.51 ± 0.42 | 1500 ± 0.94 | 0.887 ± 0.036
298.15 K, m1 = 0.0012 | 0.0119 ± 0.00048 | 996.54 ± 0.41 | 1500.3 ± 0.94 | 0.8904 ± 0.036
298.15 K, m1 = 0.0016 | 0.0127 ± 0.00051 | 996.56 ± 0.41 | 1500.1 ± 0.94 | 0.8929 ± 0.036
298.15 K, m1 = 0.002 | 0.0138 ± 0.00055 | 996.58 ± 0.41 | 1499.9 ± 0.94 | 0.8952 ± 0.036
298.15 K, m1 = 0.0025 | 0.0152 ± 0.00061 | 996.6 ± 0.41 | 1499.9 ± 0.94 | 0.8979 ± 0.036
298.15 K, m1 = 0.003 | 0.0161 ± 0.00065 | 996.62 ± 0.41 | 1499.7 ± 0.94 | 0.9007 ± 0.037
303.15 K, m1 = 0.0002 | 0.00301 ± 0.00012 | 994.49 ± 0.42 | 1510.3 ± 0.93 | 0.7889 ± 0.032
303.15 K, m1 = 0.0005 | 0.00808 ± 0.00032 | 994.52 ± 0.43 | 1511 ± 0.93 | 0.792 ± 0.032
303.15 K, m1 = 0.0008 | 0.0127 ± 0.00051 | 994.56 ± 0.42 | 1511.8 ± 0.93 | 0.7945 ± 0.032
303.15 K, m1 = 0.0012 | 0.0144 ± 0.00058 | 994.59 ± 0.42 | 1512.3 ± 0.93 | 0.7978 ± 0.032
303.15 K, m1 = 0.0016 | 0.0153 ± 0.00061 | 994.61 ± 0.41 | 1512.2 ± 0.93 | 0.8001 ± 0.032
303.15 K, m1 = 0.002 | 0.0167 ± 0.00067 | 994.62 ± 0.42 | 1512 ± 0.93 | 0.8021 ± 0.033
303.15 K, m1 = 0.0025 | 0.0178 ± 0.00071 | 994.64 ± 0.42 | 1511.8 ± 0.93 | 0.8047 ± 0.033
303.15 K, m1 = 0.003 | 0.0194 ± 0.00078 | 994.66 ± 0.42 | 1511.6 ± 0.93 | 0.807 ± 0.033
308.15 K, m1 = 0.0002 | 0.00338 ± 0.00014 | 992.55 ± 0.43 | 1518.6 ± 0.93 | 0.7097 ± 0.029
308.15 K, m1 = 0.0005 | 0.00879 ± 0.00035 | 992.58 ± 0.43 | 1519.2 ± 0.94 | 0.7125 ± 0.029
308.15 K, m1 = 0.0008 | 0.014 ± 0.00056 | 992.61 ± 0.42 | 1519.9 ± 0.94 | 0.7157 ± 0.029
308.15 K, m1 = 0.0012 | 0.0161 ± 0.00065 | 992.63 ± 0.42 | 1520.4 ± 0.94 | 0.719 ± 0.029
308.15 K, m1 = 0.0016 | 0.017 ± 0.00068 | 992.65 ± 0.42 | 1520.2 ± 0.94 | 0.7209 ± 0.029
308.15 K, m1 = 0.002 | 0.0185 ± 0.00074 | 992.66 ± 0.42 | 1520 ± 0.94 | 0.7228 ± 0.029
308.15 K, m1 = 0.0025 | 0.0195 ± 0.00078 | 992.67 ± 0.42 | 1520 ± 0.94 | 0.725 ± 0.029
308.15 K, m1 = 0.003 | 0.0217 ± 0.00087 | 992.69 ± 0.42 | 1519.5 ± 0.94 | 0.7271 ± 0.03
313.15 K, m1 = 0.0002 | 0.00364 ± 0.00015 | 990.61 ± 0.43 | 1528.8 ± 0.94 | 0.641 ± 0.026
313.15 K, m1 = 0.0005 | 0.00952 ± 0.00038 | 990.63 ± 0.44 | 1529.9 ± 0.94 | 0.6432 ± 0.026
313.15 K, m1 = 0.0008 | 0.0153 ± 0.00061 | 990.67 ± 0.43 | 1530.4 ± 0.94 | 0.6469 ± 0.026
313.15 K, m1 = 0.0012 | 0.0183 ± 0.00073 | 990.68 ± 0.42 | 1531.2 ± 0.94 | 0.6502 ± 0.026
313.15 K, m1 = 0.0016 | 0.0187 ± 0.00075 | 990.69 ± 0.43 | 1531.1 ± 0.94 | 0.652 ± 0.026
313.15 K, m1 = 0.002 | 0.0209 ± 0.00084 | 990.7 ± 0.43 | 1530.9 ± 0.94 | 0.6539 ± 0.027
313.15 K, m1 = 0.0025 | 0.0224 ± 0.0009 | 990.72 ± 0.43 | 1530.7 ± 0.94 | 0.6558 ± 0.027
313.15 K, m1 = 0.003 | 0.0243 ± 0.00097 | 990.73 ± 0.43 | 1530.5 ± 0.94 | 0.6576 ± 0.027
318.15 K, m1 = 0.0002 | 0.00396 ± 0.00016 | 988.67 ± 0.43 | 1537.1 ± 0.93 | 0.582 ± 0.024
318.15 K, m1 = 0.0005 | 0.0107 ± 0.00043 | 988.68 ± 0.43 | 1538.2 ± 0.94 | 0.5832 ± 0.024
318.15 K, m1 = 0.0008 | 0.0171 ± 0.00068 | 988.7 ± 0.44 | 1538.5 ± 0.94 | 0.587 ± 0.024
318.15 K, m1 = 0.0012 | 0.021 ± 0.00084 | 988.73 ± 0.43 | 1539.4 ± 0.94 | 0.5903 ± 0.024
318.15 K, m1 = 0.0016 | 0.023 ± 0.00092 | 988.74 ± 0.43 | 1539.2 ± 0.94 | 0.5922 ± 0.024
318.15 K, m1 = 0.002 | 0.025 ± 0.001 | 988.75 ± 0.43 | 1539 ± 0.94 | 0.5935 ± 0.024
318.15 K, m1 = 0.0025 | 0.0265 ± 0.0011 | 988.76 ± 0.43 | 1538.8 ± 0.94 | 0.5954 ± 0.024
318.15 K, m1 = 0.003 | 0.028 ± 0.0011 | 988.78 ± 0.43 | 1538.6 ± 0.94 | 0.5971 ± 0.024
323.15 K, m1 = 0.0002 | – | 986.71 ± 0.44 | 1541.7 ± 0.93 | 0.5274 ± 0.022
323.15 K, m1 = 0.0005 | – | 986.72 ± 0.44 | 1542.8 ± 0.93 | 0.5298 ± 0.022
323.15 K, m1 = 0.0008 | – | 986.74 ± 0.44 | 1543.5 ± 0.93 | 0.5334 ± 0.022
323.15 K, m1 = 0.0012 | – | 986.76 ± 0.44 | 1544.5 ± 0.93 | 0.5357 ± 0.022
323.15 K, m1 = 0.0016 | – | 986.78 ± 0.44 | 1544.3 ± 0.94 | 0.5384 ± 0.022
323.15 K, m1 = 0.002 | – | 986.79 ± 0.44 | 1544.1 ± 0.94 | 0.5398 ± 0.022
323.15 K, m1 = 0.0025 | – | 986.8 ± 0.44 | 1544 ± 0.94 | 0.5413 ± 0.022
323.15 K, m1 = 0.003 | – | 986.81 ± 0.44 | 1543.8 ± 0.94 | 0.5426 ± 0.022
